Assay results from US10703764B2, “Benzopiperazine compositions as BET bromodomain inhibitors” (FORMA Therapeutics, Inc., priority 2013, dated 2020).
pIC50: −log10 of the molar value.

What was measured:
BRD4 BD1 = target: T1, BRD4 BD1 (Homo sapiens, UniProt O60885); assay: AlphaScreen binding assay, BRD4 Bromodomain 1
T1 construct: made in house
How it was run: (§1)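 Compound dilution series were mixed with His-tagged BRD4 bromodomain and biotinylated tetra-acetylated H4 (1-21) peptide at pH 7.3 (BD1 and peptide at 50 nM, BD2 and peptide at 100 nM). Donor and acceptor beads were then added, and plates were equilibrated at least 1 h before reading. IC50 values were fitted with a four-parameter logistic model.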

BRD4 BD2 = target: T2, BRD4 BD2 (Homo sapiens, UniProt O60885); assay: AlphaScreen binding assay, BRD4 Bromodomain 2
T2 construct: made in house
How it was run: as §1

| SMILES | pIC50 (BRD4 BD1) | pIC50 (BRD4 BD2) |
| --- | --- | --- |
| CC(=O)N1c2ccccc2N(C(=O)Cc2ccc(-c3ccccc3)cc2)C[C@@H]1C [Example I-707] | < 5.00 | < 6.30 |
| COc1ccccc1NC(=O)N1C[C@H](C)N(C(C)=O)c2ccc(-c3ccc(S(C)(=O)=O)cc3)cc21 [Example I-970] | 5.00 to 6.00 | 6.30 to 7.30 |
| CC(=O)N1c2ccc(-c3ccc(-c4ccccc4)cc3)cc2N(C(=O)COc2ccccc2)C[C@@H]1C [Example I-797] | < 5.00 | < 6.30 |
| CC(=O)N1c2ccccc2N(CC2CCOCC2)C[C@@H]1C [Example I-925] | < 5.00 | < 6.30 |
| CNC(=O)N1C[C@H](C)N(C(C)=O)c2ccc(-c3ccc(S(C)(=O)=O)cc3)cc21 [Example I-253] | < 5.00 | < 6.30 |
| CC(=O)N1c2ccc(-c3cn(C)nn3)cc2N(C(=O)C2CC2)C[C@@H]1C [Example I-453] | 5.00 to 6.00 | 6.30 to 7.30 |
| CC(=O)N1c2ccc(-c3cnn(C4COC4)c3)cc2N(C(=O)OC2CC3(COC3)C2)C[C@@H]1C [Example I-70, 2-oxaspiro[3.3]heptan-6-yl (3S)-4-acetyl-3-methyl-7-[1-(oxetan-3-yl)-1H-pyrazol-4-yl]-1,2,3,4-tetrahydroquinoxaline-1-carboxylate] | 5.00 to 6.00 | < 6.30 |
| CC(=O)N1c2ccccc2N(C(=O)c2csc(Nc3cccnc3)n2)C[C@@H]1C [Example I-725] | < 5.00 | < 6.30 |
| COc1ncc(F)cc1OC(=O)N1C[C@H](C)N(C(C)=O)c2ccc(-c3cnn(C4CC4)c3)cc21 [Example I-1208] | 5.00 to 6.00 | 6.30 to 7.30 |
| CC(=O)N1c2ccc(-c3c(C)n[nH]c3C)cc2N(C(=O)OC(C)C)CC1C (centres unmarked) [Example I-333] | 5.00 to 6.00 | < 6.30 |
| COc1cc(C(=O)N2C[C@H](C)N(C(C)=O)c3ccccc32)nc2ccccc12 [Example I-753] | < 5.00 | < 6.30 |
| CC(=O)N1c2ccccc2N(C(=O)Cc2cccs2)C[C@@H]1C [Example I-731] | < 5.00 | < 6.30 |
| COC(=O)N1c2ccc(-c3cnn(CCC#N)c3)cc2N(C(=O)Oc2cccnc2)C[C@@H]1C [Example I-1289] | 5.00 to 6.00 | 6.30 to 7.30 |
| COC(=O)N1c2ccc(-c3ccc4c(c3)CCN4S(C)(=O)=O)cc2N(C(=O)Oc2cccnc2)C[C@@H]1C [Example I-1291] | 5.00 to 6.00 | < 6.30 |
| CC(=O)N1c2ccc(-c3ccc4nn(C)cc4c3)cc2N(C(=O)c2ccco2)C[C@@H]1C [Example I-404] | 5.00 to 6.00 | 6.30 to 7.30 |
| CC(=O)N1c2ccc(-c3cnc(N(C)C)nc3)cc2N(C(=O)c2ccco2)C[C@@H]1C [Example I-831] | 5.00 to 6.00 | > 7.30 |
| CC(=O)N1c2ccc(-c3ccc(S(C)(=O)=O)cc3)cc2N(c2ncccn2)C[C@@H]1C [Example I-45, (S)-1-(2-methyl-6-(4-(methylsulfonyl)phenyl)-4-(pyrimidin-2-yl)-3,4-dihydroquinoxalin-1(2H)-yl)ethanone] | 5.00 to 6.00 | < 6.30 |
| CC(=O)N1c2ccc(-c3cnn(C4CC4)c3)cc2N(C(=O)Oc2c(Cl)cc(Cl)c3cccnc23)C[C@@H]1C [Example I-1197] | 5.00 to 6.00 | 6.30 to 7.30 |
| CC(=O)N1c2ccccc2N(Cc2ccc(Cl)c(F)c2)C[C@@H]1C [Example I-898] | < 5.00 | < 6.30 |
| CC(=O)N1c2ccc(-c3cccc(N(C)C)c3)cc2N(C(=O)c2ccco2)C[C@@H]1C [Example I-870] | 6.00 to 7.00 | 6.30 to 7.30 |
| COC(=O)N1c2ccc(-c3ccc(C(=O)NCc4ncco4)cc3)cc2N(C(=O)OC(C)C)C[C@@H]1C [Example I-583] | 5.00 to 6.00 | < 6.30 |
| CC(=O)N1c2ccc(-c3ccc(S(C)(=O)=O)cc3)cc2N(c2ncc3ccccc3n2)C[C@@H]1C [Example I-48, (S)-1-(2-methyl-6-(4-(methylsulfonyl)phenyl)-4-(quinazolin-2-yl)-3,4-dihydroquinoxalin-1(2H)-yl)ethanone] | 5.00 to 6.00 | 6.30 to 7.30 |
